# Measured values reported in patent US9970924B2, “Mechanism and drug targets for reducing cell edema (neuroprotection) and cytoplasmic excitability in astrocytes in normal and pathological states” (CELICA D.O.O., priority 2013, dated 2018).
# “Also recorded” adds a separate entry of the source. Like-named read-outs stand apart in the source and are kept apart here.
# Legend:
# astrocytes [1] = assay: Exocytotic fusion events of Alexa Fluor 546 dextran-labeled vesicles in cultured astrocytes; type: cell-based; conditions: for number of ATP triggered fusion events per cell: 1 mM ATP + 1 μM ADR or 10 μM Iso
# Experimental: Time-lapse confocal images were obtained every 2 s for 10 min with the inverted Zeiss LSM780 and Zeiss LSM510 META confocal microscopes with oil-immersion plan apochromatic objective (63×, 1.4 NA) and 543-nm He—Ne laser excitation. […] Cells were scanned by eye for an individual exocytotic event by rapidly replaying the movie in forward and reverse directions. The onset of exocytosis was defined as the first frame showing a significant decrease in Alexa Fluor^546-dextran. A circular region of interest was centered on the spot where the event occurred, and changes in the fluorescence intensities of Alexa Fluor^546-dextran were monitored over time.
# [Ca2+]i in astrocytes = Fluo-4 AM measurements of [Ca2+]i in cultured astrocytes; type: cell-based; conditions: for intracellular Ca2+ levels (F/F0) within first 100 s after stimulation: agent alone: 1 mM ATP; for intracellular Ca2+ levels (F/F0) within first 100 s after stimulation / oscillations in intracellular calcium levels: 10 μM Iso; for effect on hypotonicity-elicited periodic elevations in [Ca2+]i: 1 μM ADR or 10 μM Iso applied after hypotonic medium; for intracellular calcium levels on simultaneous treatment with hypotonic medium: 1 μM ADR or 10 μM Iso with hypotonic medium; for effect on ATP-induced elevation in cytosolic calcium levels: 1 mM ATP + 1 μM ADR or 10 μM Iso; for oscillations in intracellular calcium levels: agent alone: 1 μM ADR
# Experimental: Live astrocytes were incubated for 30 min at room temperature in medium containing 2 μM of fluorescent dye Fluo-4 AM (Molecular Probes, Invitrogen, Eugene, Oreg., USA). Astrocytes were then transferred to dye-free standard saline solution for at least 30 min before experimentation to allow for cleavage of the AM ester group. Time lapse images were obtained every 3.5 s for up to 10 min with the inverted Zeiss LSM780 confocal microscope with oil-immersion plan apochromatic objective (63×, 1.4 NA) and 488-nm Ar-Ion laser excitation. Emission light was acquired with a 505-530-nm bandpass emission filter. […] Average fluorescence intensity before stimulation of each cell was subtracted from intensities after stimulation (ΔF). Average fluorescence intensity changes normalized to baseline fluorescence intensity (F/F0) were determined for the first 100 s after stimulation.
# [2] = tested on: intracellular cAMP levels in astrocytes; assay: FRET measurements of cAMP in living primary astrocytes transfected with Epac1-camps; conditions: for effect on ADR triggered FRET response: 1 μM ADR
# Excerpt: Astrocytes expressing Epac1-camps or AKAR2 FRET construct were examined with a Plan NeoFluoar 40×/1.3 Oil DIC immersion objective (Carl Zeiss, Jena, Germany) and 2-fold zoom factor using Zeiss LSM510 META confocal microscope (Carl Zeiss, Jena, Germany). Cells were excited at 458 nm and images (512×512) were acquired every 3.5 s or 7 s using Lambda stack acquisition. Emission spectra were collected from META detector in eight channels (lambda stack) ranging from 470 nm to 545 nm, each with a 10.7-nm width. Two-channel (CFP and YFP) images were generated from lambda stacks by analytical software “Extract channels”. Channels with emission spectra 470- and 481-nm and emission spectra 513-, 524-, and 534-nm were extracted to CFP channel and YFP channel, respectively. YFP and CFP fluorescence intensities were quantified within a region of interest selected for individual cell expressing Epac1-camps or AKAR2 using LSM 510 META software. In the graphs, FRET signal is reported as the ratio of YFP to CFP fluorescence signal after subtracting the background fluorescence from both YFP and CFP signals using Sigma Plot. The values of FRET signals were normalized (set to 1.0) at the onset of the experiments. The decrease in FRET signals reflects an increase in [cAMP]i.
# 500 μM 3-Chloro-5-hydroxybenzoic acid (3-Cl-5-HBA; GPR81 receptor exogenous agonist).
# The changes in YFP/CFP fluorescence emission ratio were normalized to baseline ratio values. Single-exponential (F=F0+c×exp (−t/τ)) decay functions or single-exponential rise to maximum functions (F=F0+c×(1−exp(−t/τ))) were fitted to the diagrams with YFP/CFP fluorescence emission ratios using SigmaPlot. The time-constant (τ) and YFP/CFP emission ratio amplitudes (c) were determined from the fitted curves. F is YFP/CFP emission ratio at time t, F0 is baseline YFP/CFP emission ratio, c is YFP/CFP emission ratio amplitude of F(t=0)−F0, and τ is the time constant of individual exponential component.
# [3] = tested on: GPR81 receptor / intracellular cAMP levels in astrocytes; assay: FRET measurements of cAMP in living primary astrocytes transfected with AKAR2; type: cell-based, rat
# Excerpt: Astrocytes expressing Epac1-camps or AKAR2 FRET construct were examined with a Plan NeoFluoar 40×/1.3 Oil DIC immersion objective (Carl Zeiss, Jena, Germany) and 2-fold zoom factor using Zeiss LSM510 META confocal microscope (Carl Zeiss, Jena, Germany). Cells were excited at 458 nm and images (512×512) were acquired every 3.5 s or 7 s using Lambda stack acquisition. Emission spectra were collected from META detector in eight channels (lambda stack) ranging from 470 nm to 545 nm, each with a 10.7-nm width. Two-channel (CFP and YFP) images were generated from lambda stacks by analytical software “Extract channels”. […] YFP and CFP fluorescence intensities were quantified within a region of interest selected for individual cell expressing Epac1-camps or AKAR2 using LSM 510 META software. In the graphs, FRET signal is reported as the ratio of YFP to CFP fluorescence signal after subtracting the background fluorescence from both YFP and CFP signals using Sigma Plot. […]
# The changes in YFP/CFP fluorescence emission ratio were normalized to baseline ratio values. Single-exponential (F=F0+c×exp (−t/τ)) decay functions or single-exponential rise to maximum functions (F=F0+c×(1−exp(−t/τ))) were fitted to the diagrams with YFP/CFP fluorescence emission ratios using SigmaPlot. The time-constant (τ) and YFP/CFP emission ratio amplitudes (c) were determined from the fitted curves. […]
# astrocytes [4] = assay: Hypotonically induced cell swelling (cell surface area) of astrocytes; type: cell-based; conditions: pretreated cells, hypotonic medium ~60% of control osmolarity
# Excerpt: (§1) LSM 510 Meta software was used to measure cell area and perimeter of isolated Epac1-camps positive astrocytes before and after treatment of cell with different reagents.
# astrocytes [5] = conditions: within an hour
# Excerpt: as §1
smiles,measurement,setting,value
"Nc1ncnc2c1ncn2[C@@H]1O[C@H](COP(=O)(O)OP(=O)(O)OP(=O)(O)O)[C@@H](O)[C@H]1O [ATP, adenosine-5′-triphosphate]",exocytotic fusion release events,astrocytes [1]; 1 mM ATP,triggered exocytotic fusion release events
same,intracellular Ca2+ levels (F/F0) within first 100 s after stimulation,[Ca2+]i in astrocytes; 1 μM ADR,increased
"C[C@H](O)C(=O)[O-].[Na+] [lactate, Sodium L-lactate]",intracellular cAMP levels (Epac1-camps YFP/CFP ratio; decline = cAMP increase),[2]; 20 mM lactate,increase in intracellular cAMP levels
same,intracellular cAMP levels (AKAR2 YFP/CFP ratio; uprise = cAMP increase),[3]; 20 mM lactate,increase in intracellular cAMP levels
"C[C@H]1O[C@@H](n2cnc3c(N)ncnc32)C[C@@H]1O [DDA, 2′,5′-dideoxiadenosine]",effect on ADR triggered FRET response,[2]; 100 μM DDA,slower decay kinetics
O=C(O)c1cc(O)cc(Cl)c1 [3-Cl-5-HBA],intracellular cAMP levels (AKAR2 YFP/CFP ratio; uprise = cAMP increase),[3]; 500 μM 3-Cl-5-HBA,increase in intracellular cAMP levels
CC(C)Cn1c(=O)n(C)c(=O)c2[nH]cnc21 [IBMX],effect on Epac1-camps response to FSK,[2]; 200 μM IBMX with 50 μM FSK,increased Epac1-camps response to AC activator FSK
"CC(C)NCC(O)c1ccc(O)c(O)c1 (stereo not shown) [Iso, isoprenaline]",number of ATP triggered fusion events per cell,astrocytes [1],diminished
same,hypotonically induced cell swelling (increase in cell surface area),astrocytes [4],reduced
same,effect on hypotonicity-elicited periodic elevations in [Ca2+]i,[Ca2+]i in astrocytes,ceased
same,intracellular calcium levels on simultaneous treatment with hypotonic medium,[Ca2+]i in astrocytes,"transient increase in intracellular calcium levels, which was followed by a decline to basal levels"
same,effect on ATP-induced elevation in cytosolic calcium levels,[Ca2+]i in astrocytes,diminishes the elevation in cytosolic calcium levels
same,oscillations in intracellular calcium levels,[Ca2+]i in astrocytes,not
same,intracellular Ca2+ levels (F/F0) within first 100 s after stimulation,[Ca2+]i in astrocytes; 1 μM ADR,no significant difference
"CNCC(O)c1ccc(O)c(O)c1 (stereo not shown) [ADR, adrenaline]",increase in FRET response to hypotonic medium (decrease in cAMP),"[2]; ADR pre-treated cells, hypotonic medium",reversible and slowly declined to the baseline
same,EC50,"[2]; Rattus norvegicus, Astrocyte, read-out: concentration of ADR at which 50% of maximum cAMP increase was observed (EC50), maximum YFP/CFP ratio response, Epac1-camps, dose-response",~30 nM
same,EC50,"[2]; read-out: concentration of ADR at which 50% of maximum cAMP increase was observed (EC50), maximum YFP/CFP ratio response, Epac1-camps, dose-response",29 ± 0.1 nM
same,number of ATP triggered fusion events per cell,astrocytes [1],reduce the number of exocytotic fusion events; also recorded: diminished
same,hypotonically induced cell swelling (increase in cell surface area),astrocytes [4],reduces hypotonically induced cell swelling; also recorded: reduced
same,decrease in cell area,astrocytes [5],5-10%
same,increase in cell perimeter,astrocytes [5],30-50%
same,frequency of calcium oscillations compared with hypotonic medium-stimulated cells,[Ca2+]i in astrocytes; 1 μM ADR,more frequent
same,effect on hypotonicity-elicited periodic elevations in [Ca2+]i,[Ca2+]i in astrocytes,attenuated; also recorded: ceased
same,intracellular calcium levels on simultaneous treatment with hypotonic medium,[Ca2+]i in astrocytes,"transient increase in intracellular calcium levels, which was followed by a decline to basal levels"
same,effect on ATP-induced elevation in cytosolic calcium levels,[Ca2+]i in astrocytes,diminishes the elevation in cytosolic calcium levels
same,oscillations in intracellular calcium levels,[Ca2+]i in astrocytes,induced oscillations in intracellular calcium levels
same,intracellular Ca2+ levels (F/F0) within first 100 s after stimulation,[Ca2+]i in astrocytes; 1 μM ADR,increased
"CC(C)NCC(O)COc1cccc2ccccc12 (stereo not shown) [Pro, propranolol]",effect on ADR triggered FRET response,[2]; 1 μM Pro,completely prevented
